Reference: patent EP0198172A1, “Pharmaceutical preparation” (HERMES Fabrik pharmazeutischer Präparate Franz Gradinger …, priority 1985, dated 1986)

Test system: Patienten
Assay: Double-blind crossover clinical study, impedance cardiography (I.C.) in six patients
Format: in vivo, Menschen
Text: Im folgenden werden klinische Versuche am Menschen beschrieben, die die Wirkungen der erfindungsgemäßen pharmazeutischen Zubereitung zeigen: • Tabelle 1 zeigt in schematischer Darstellung eine Doppel-Blind-Studie mit der erfindungsgemäßen pharmazeutischen Zubereitung.
Dabei bedeutet "I.C."Impedanz Cardiographie.
Zur Durchführung der Impedanz Cardiographie wird insbesondere verwiesen auf "Biomedical and clinical aspects for coenzyme Q, Volume 1 (1977) Volume 2 (1980), Volume 3 (1981), Volume 4 (1984), Elsevier/North-Holland Biomedical Press, Amsterdam-New York-Oxford" und auf Lee E. Baker (ebenda, Vol. 2,.Seite 289) und schließlich W.G. Kubicek, Aerospace Med. 37 (12), 1208, 1966.
Die Wirkungen der erfindungsgemäßen pharmazeutischen Zubereitung auf das Herz-Schlag-Volumen (SV), das Herz-Zeit-Volumen (CO) und den Heather Index (HI) von sechs Patienten wurden ermittelt und in der folgenden Tabelle 2 zusammengestellt.
Den sechs Patienten wurden gemäß Tabelle II gegeben: • CoQ10 : 3 x 33 mg = 99 mg täglich • Placebo : Oleum arachidis Vol.(eine Kapsel 0,5 ml) • CoQ10 + Vitamin E : (3 x 33 mg) + (3 x 100 mg) zusammen in 3 Kapseln täglich gelöst in Oleum arachidis • Vitamin E : 3 x 100 mg täglich (= 3 Kapseln . täglich). [formula]

[1] = oral capsules daily, impedance cardiography, result in words

COC1=C(OC)C(=O)C(C/C=C(\C)CC/C=C(\C)CC/C=C(\C)CC/C=C(\C)CC/C=C(\C)CC/C=C(\C)CC/C=C(\C)CC/C=C(\C)CC/C=C(\C)CCC=C(C)C)=C(C)C1=O [CoQ10, 2.3-Dimethoxy-5-methyl-1.4-benzochinon mit einer isoprenoiden Seitenkette, mit 10 Dihydroisopren-Einheiten]
Steigerung des Herzminutenvolumens (CO) (oral capsules daily (CoQ10 3 x 33 mg; combination 3 x 33 mg + 3 x 100 mg Vitamin E), versus controls, placebo and Vitamin E alone): ~20%
Heather Index (HI) [1]: Ähnliches gilt
Schlagvolumen (SV) [1]: Ähnliches gilt
